Data on 1 compound can be found in PubChem BioAssay AID504758 (National Center for Advancing Translational Sciences (NCATS), 2011).

The subject of the data set is Caco-2 monolayer permeability, A-to-B, LC-MS/MS. The experiment in a line: Inhibitors of Cruzain: Caco-2 Permeability Profiling Assay. The conditions noted are these: stronger effect = higher value. The source says:
Chagas Disease is a neglected tropical disease that affects over 16 million people in Latin America. The cysteine protease cruzain is essential for the survival Trypanosoma cruzi, the parasitic agent responsible for Chagas disease. Potential intervention for T. cruzi includes the inhibition of cruzain. This bioassay will summarize the ongoing development of small molecule cruzain inhbitiors. Currently, a screen of ~200k compounds and through extensive follow-up work a probe was identified. To further characterize the probe, it was tested in in vitro ADME assays. This permeability assay predicts the in vivo absorption of the lead across the intestinal lining by using a Caco-2 cell line and measuring the lead's rate of transport into the cytosol. […] NIH Chemical Genomics Center [NCGC] NIH Molecular Libraries Probe Production Centers Network [MLPCN] MLSCN Grant: DA024891-01 PI Name: Dr. Brian Shoichet; University of California, San Francisco
1. Buffer Preparation: Prepare 1M HEPES: add 23.83g HEPES to 100ml of 0.85% NaCl Prepare HBSS+ buffer: add 12.8ml of 1M HEPES in 0.85% NaCl to 500ml HBSS buffer. 2. Take out the compounds from -80 degrees C, ultrasonicate or pre-warm for a few minutes to thaw the compounds. 3. […] The T0, LY and T90, LY plates are read by FlexStation 3 at excitation of 485 nm and emission of 535 nm to determine LY permeability. […]

Regarding `Cc1ccc(OCCn2c(CCNC(=O)C3CCCCC3)nc3ccccc32)cc1`, the apparent permeability Papp is 4.1 10^-6 cm/s.
